Measurements as given in US8367716B2 (priority 2003, dated 2013).
Converted amounts (≈) assume the structure as drawn.

System: S. aureus strain DK825
Test: microbe, parasite or virus in culture
Format: cell-based, Staphylococcus aureus
Settings: S. aureus DK825 (MRSA)
Protocol: Antibiotic susceptibility testing. Susceptibility tests were performed in Sensititre microtitre plates according to the manufacturer's instructions (Microbiology Systems).
Penicillin gave an MIC of over 8 µg/mL.

Same assay, conditions: Staphylococcus aureus, MRSA
Molecule `CC1(C)S[C@@H]2[C@H](NC(=O)[C@H](N)c3ccccc3)C(=O)N2[C@H]1C(=O)O` [Ampicillin] has an MIC of 4 µg/mL (≈ 11.4 µM). For `O=C(O)c1cn(C2CC2)c2cc(N3CCNCC3)c(F)cc2c1=O` [Ciprofloxacin], the MIC was over 2 µg/mL. With `CC[C@H]1OC(=O)[C@H](C)[C@@H](O[C@H]2C[C@@](C)(OC)[C@@H](O)[C@H](C)O2)[C@H](C)[C@@H](O[C@@H]2O[C@H](C)C[C@H](N(C)C)[C@H]2O)[C@](C)(OC)C[C@@H](C)C(=O)[C@H](C)[C@@H](O)[C@]1(C)O` [Clarithromycin] the MIC was over 4 µg/mL. `CCC[C@@H]1C[C@@H](C(=O)N[C@@H]([C@H]2O[C@H](SC)[C@H](O)[C@@H](O)[C@H]2O)[C@H](C)Cl)N(C)C1` [Clindamycin] gave an MIC of over 2 µg/mL. In the case of `CC[C@H]1OC(=O)[C@H](C)[C@@H](O[C@H]2C[C@@](C)(OC)[C@@H](O)[C@H](C)O2)[C@H](C)[C@@H](O[C@@H]2O[C@H](C)C[C@H](N(C)C)[C@H]2O)[C@](C)(O)C[C@@H](C)C(=O)[C@H](C)[C@@H](O)[C@]1(C)O` [Erythromycin], the MIC is reported as over 4 µg/mL. With `C[C@H]1COc2c(N3CCN(C)CC3)c(F)cc3c(=O)c(C(=O)O)cn1c23` [Levofloxacin] the MIC was 2 µg/mL (≈ 5.53 µM). `COc1c(N2C[C@@H]3CCCN[C@@H]3C2)c(F)cc2c(=O)c(C(=O)O)cn(C3CC3)c12` [Moxifloxacin] showed an MIC of 2 µg/mL (≈ 4.98 µM). In the case of `Cc1onc(-c2ccccc2)c1C(=O)N[C@@H]1C(=O)N2[C@@H]1SC(C)(C)[C@@H]2C(=O)O` [Oxacillin], the MIC is reported as over 2 µg/mL. Work on `CO[C@H]1/C=C/O[C@@]2(C)Oc3c(C)c(O)c4c(O)c(c(/C=N/N5CCN(C)CC5)c(O)c4c3C2=O)NC(=O)/C(C)=C\C=C\[C@H](C)[C@H](O)[C@@H](C)[C@@H](O)[C@@H](C)[C@H](OC(C)=O)[C@@H]1C` [Rifampin] yielded an MIC of over 2 µg/mL. With `CN[C@H](CC(C)C)C(=O)N[C@H]1C(=O)N[C@@H](CC(N)=O)C(=O)N[C@H]2C(=O)N[C@H]3C(=O)N[C@H](C(=O)N[C@H](C(=O)O)c4cc(O)cc(O)c4-c4cc3ccc4O)[C@H](O)c3ccc(c(Cl)c3)Oc3cc2cc(c3O[C@@H]2O[C@H](CO)[C@@H](O)[C@H](O)[C@H]2O[C@H]2C[C@](C)(N)[C@H](O)[C@H](C)O2)Oc2ccc(cc2Cl)[C@H]1O` [Vancomycin] the MIC was under 0.5 µg/mL.

System: S. aureus
Test: Biofilm formation on polystyrene microtitre plates (crystal violet, O.D.570)
Format: cell-based, Staphylococcus aureus
Settings: DK825, 200 μM
Protocol: Effect of c-di-GMP on S. aureus biofilm formation. S. aureus strains were subcultured from glycerol stocks onto blood agar plates and incubated at 37° C. for 18 h. A single colony was inoculated into 5 ml TSB broth with a sterilized loop and incubated at 37° C. for 18 h with shaking at 250 rpm and until the O.D.660 reached 3.0 as measured spectrophotometrically using a spectrophotometer (SpectraMAX 250, Molecular Devices). Following incubation, the culture was diluted 1:250 with fresh TSB and a 200 μl of the diluted culture was transferred into wells of a flat-bottom polystyrene microtitre plate (Evergreen Scientific). […] In these biofilm experiments, similar volumes of 0.9% NaCl was added to a set of different wells representing the “untreated” control samples. The microtitre plates were then incubated statically at 37° C. for 24 h or 48 h. Following incubation, the supernatant was carefully discarded and the wells washed twice with 260 μl PBS. The plate was then kept for drying on a paper towel for 30 min after which 260 μl 0.1% crystal violet was added to each well and the plates incubated at room temperature for 30 min. The crystal violet was discarded and plate washed gently with water, the wells allowed to dry for 30 min then 260 μl DMSO was added to each well and gently agitated for 1 h and the O.D.570 measured by using a spectrophotometer (SpectraMAX 250, Molecular Devices). The results of these biofilm assays were based on data obtained from at least three independent colonies tested in duplicate.
In the case of `Nc1nc2c(ncn2[C@@H]2O[C@H](COP(=O)(O)O)[C@@H](O)[C@H]2O)c(=O)[nH]1` [5′-GMP, guanosine 5′-monophosphate, reference compound], the “effect on biofilm formation” value is reported as “no effect”.

Same assay, conditions: DK825, 200 μM, 24 h
With `Nc1nc2c(ncn2[C@@H]2O[C@@H]3COP(=O)(O)O[C@H]3[C@H]2O)c(=O)[nH]1` [cGMP, guanosine 3′, 5′-cyclic monophosphate, reference compound] the “reduction of biofilm formation” value was about 40%.

System: S. aureus strain 15981
Test: not given
Settings: S. aureus 15981, hyperbiofilm human clinical strain; cited from earlier work
For `CC1(C)S[C@@H]2[C@H](NC(=O)[C@H](N)c3ccc(O)cc3)C(=O)N2[C@H]1C(=O)O` [AMX], the antibiotic susceptibility is listed as “susceptible”. For `C[C@H]1c2cccc(O)c2C(O)=C2C(=O)[C@]3(O)C(O)=C(C(N)=O)C(=O)[C@@H](N(C)C)[C@@H]3[C@@H](O)[C@@H]21` [DOX], the antibiotic susceptibility is given as “susceptible”. In the case of `CC[C@H]1OC(=O)[C@H](C)[C@@H](O[C@H]2C[C@@](C)(OC)[C@@H](O)[C@H](C)O2)[C@H](C)[C@@H](O[C@@H]2O[C@H](C)C[C@H](N(C)C)[C@H]2O)[C@](C)(O)C[C@@H](C)C(=O)[C@H](C)[C@@H](O)[C@]1(C)O` [Erythromycin], the antibiotic susceptibility is given as “susceptible”. In the case of `C[C@@H]1O[C@@H]1P(=O)(O)O` [FOF], the antibiotic susceptibility is listed as “susceptible”. In the case of `COc1cccc(OC)c1C(=O)N[C@@H]1C(=O)N2[C@@H]1SC(C)(C)[C@@H]2C(=O)O` [MET], the antibiotic susceptibility is given as “susceptible”. For `CN[C@H](CC(C)C)C(=O)N[C@H]1C(=O)N[C@@H](CC(N)=O)C(=O)N[C@H]2C(=O)N[C@H]3C(=O)N[C@H](C(=O)N[C@H](C(=O)O)c4cc(O)cc(O)c4-c4cc3ccc4O)[C@H](O)c3ccc(c(Cl)c3)Oc3cc2cc(c3O[C@@H]2O[C@H](CO)[C@@H](O)[C@H](O)[C@H]2O[C@H]2C[C@](C)(N)[C@H](O)[C@H](C)O2)Oc2ccc(cc2Cl)[C@H]1O` [Vancomycin], the antibiotic susceptibility is listed as “susceptible”.
